A word on the Ki: it is a dissociation constant, usually derived from enzyme kinetics or from competition with a known ligand. A low value points to tighter binding. By solubility is commonly meant how much of the substance goes into solution per volume. The low end stands for a poorly soluble substance, the high end for a readily soluble substance. As a reminder, the logD is the decadic logarithm of the distribution of all forms, ionised or not, between an organic phase and buffer at a given pH. Higher therefore signals a more lipophilic compound.

Here are results for 14 compounds from ChEMBL document CHEMBL1133556, “Carbonic anhydrase inhibitors: water-soluble 4-sulfamoylphenylthioureas as topical intraocular pressure-lowering agents with long-lasting effects” (J Med Chem, 2000).

In one series the target is Carbonic anhydrase 1 (Homo sapiens, UniProt P00915).
Carbonic anhydrase 1, sequence (P00915 whole entry): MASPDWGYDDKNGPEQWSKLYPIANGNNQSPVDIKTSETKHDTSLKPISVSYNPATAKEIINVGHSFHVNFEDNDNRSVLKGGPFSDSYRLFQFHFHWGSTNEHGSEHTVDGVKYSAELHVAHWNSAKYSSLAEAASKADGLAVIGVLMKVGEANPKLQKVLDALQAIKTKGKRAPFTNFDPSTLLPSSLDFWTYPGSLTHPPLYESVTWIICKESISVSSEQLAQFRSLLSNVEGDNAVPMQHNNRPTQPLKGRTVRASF
The subject of series [1] is Oryctolagus cuniculus. Briefly: Tested in vivo for lowering IOP (Intraocular Pressure)in Normotensive Rabbits at pH 7.0 after treatment with 50 uL, activity at 90 minutes. The format is functional.
For a further series, the target named is Carbonic anhydrase 2 (Homo sapiens, UniProt P00918).
The species named for series [2] is Oryctolagus cuniculus.
Series [3] is filed under the species Oryctolagus cuniculus. This is another data set of the same source.
A further series concerns the target T1, Carbonic anhydrase 4 (Bos taurus, UniProt Q95323).
T1 sequence (Q95323 whole entry): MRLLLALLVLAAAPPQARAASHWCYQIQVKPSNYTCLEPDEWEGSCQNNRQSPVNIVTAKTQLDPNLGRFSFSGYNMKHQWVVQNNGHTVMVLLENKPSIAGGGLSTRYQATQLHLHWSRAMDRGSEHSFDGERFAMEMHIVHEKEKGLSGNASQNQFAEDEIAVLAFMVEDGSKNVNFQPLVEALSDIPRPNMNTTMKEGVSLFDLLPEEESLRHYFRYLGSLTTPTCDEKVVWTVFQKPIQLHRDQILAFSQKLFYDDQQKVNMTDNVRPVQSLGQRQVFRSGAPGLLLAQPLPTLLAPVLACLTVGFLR

For series [4], the species on record is Oryctolagus cuniculus. The source holds these as a separate data set.
Description: Tested in vitro for transcorneal accession rates (corneal permeability) against cornea with no epithelium
For series [5], the species on record is Oryctolagus cuniculus. This is another data set of the same source.
Series [6] can be described thus: physchem. Particulars: buffer, pH 7.4.
Description: (§1) Solubility (in uM) in pH 7.40 at 25 degree C
The species named for series [7] is Oryctolagus cuniculus. The source holds these as a separate data set.
Description: Tested in vitro for transcorneal accession rates (corneal permeability) against intact cornea
For series [8] the following is noted: octanol/water.
Description: Partition coefficient (logD) (chloroform/buffer)
For series [9], the species on record is Oryctolagus cuniculus. This is another data set of the same source.
Description: Tested in vivo for lowering IOP (Intraocular Pressure)in Normotensive Rabbits at pH 6.5 after treatment with 50 uL, activity at 90 minutes
Series [10] has as its system Oryctolagus cuniculus. Briefly: Tested in vivo for lowering IOP (Intraocular Pressure)in Normotensive Rabbits at pH 6.5 after treatment with 50 uL, activity at 30 minutes. The format is functional.
The subject of series [11] is Oryctolagus cuniculus. Put plainly: Tested in vivo for lowering IOP (Intraocular Pressure)in Normotensive Rabbits at pH 6.5 after treatment with 50 uL, activity at 60 minutes. It is filed as functional.
Series [12] concerns Oryctolagus cuniculus. Put plainly: Tested in vivo for lowering IOP (Intraocular Pressure)in Normotensive Rabbits at pH 7.0 after treatment with 50 uL, activity at 60 minutes. The format is functional.
The species named for series [13] is Oryctolagus cuniculus. Briefly: Tested ex vivo for ocular tissue concentration against ciliary process after 2 hour of treatment with 50 uL. It is filed as functional, organism-based. The settings on record: Eye.
For series [14], the system named is Oryctolagus cuniculus. Put plainly: Tested in vivo for lowering IOP (Intraocular Pressure)in Glaucomatous Rabbits at pH 7.0 after treatment with 50 uL, activity at 90 minutes. It is filed as functional.
The species entered for series [15] is Oryctolagus cuniculus. Briefly: Tested ex vivo for ocular tissue concentration against ciliary process after 1 hour of treatment with 50 uL. The format is functional, organism-based. The settings on record: Eye.
Series [16] is filed under the species Oryctolagus cuniculus. Briefly: Tested ex vivo for ocular tissue concentration against aqueous humor after 2 hour of treatment with 50 uL. Particulars: Eye. It is filed as functional, organism-based.
Series [17] can be described thus: physchem. The settings on record: buffer, pH 7.4. The source holds these as a separate data set.
Description: as §1
For series [18], the species on record is Oryctolagus cuniculus. Briefly: Tested ex vivo for ocular tissue concentration against cornea after 2 hour of treatment with 50 uL. The format is functional, organism-based.
For series [19], the system named is Oryctolagus cuniculus. Briefly: Tested in vivo for lowering IOP (Intraocular Pressure)in Glaucomatous Rabbits at pH 7.0 after treatment with 50 uL, activity at 30 minutes. The format is functional.
The species entered for series [20] is Oryctolagus cuniculus. Put plainly: Tested ex vivo for ocular tissue concentration against aqueous humor after 1 hour of treatment with 50 uL. The settings on record: Eye. It is filed as functional, organism-based.
The species entered for series [21] is Oryctolagus cuniculus. Put plainly: Tested ex vivo for ocular tissue concentration against cornea after 1 hour of treatment with 50 uL. The format is functional, organism-based.
Series [22] has as its system Oryctolagus cuniculus. Briefly: Tested in vivo for lowering IOP (Intraocular Pressure)in Glaucomatous Rabbits at pH 7.0 after treatment with 50 uL, activity at 60 minutes. The format is functional.
The test system of series [23] is Oryctolagus cuniculus. Put plainly: Tested in vivo for lowering IOP (Intraocular Pressure)in Normotensive Rabbits at pH 7.0 after treatment with 50 uL, activity at 30 minutes. The format is functional.
The test system of series [24] is Oryctolagus cuniculus. Put plainly: Tested in vivo for lowering IOP (Intraocular Pressure)in Glaucomatous Rabbits at pH 7.5 after treatment with 50 uL, activity at 60 minutes. It is filed as functional.
In series [25] the test system is Oryctolagus cuniculus. Briefly: Tested in vivo for lowering IOP (Intraocular Pressure)in Glaucomatous Rabbits at pH 7.5 after treatment with 50 uL, activity at 30 minutes. It is filed as functional.
The subject of series [26] is Oryctolagus cuniculus. Briefly: Tested in vivo for lowering IOP (Intraocular Pressure)in Glaucomatous Rabbits at pH 7.5 after treatment with 50 uL, activity at 90 minutes. The format is functional.
Series [27] has as its system Oryctolagus cuniculus. Briefly: Tested in vivo for lowering IOP (Intraocular Pressure)in Normotensive Rabbits at pH 7.0. after treatment with 50 uL, activity at 90 minutes. It is filed as functional.

≈ marks a conversion by molar mass, not a printed value.

Description for Carbonic anhydrase 1: Inhibitory activity against human recombinant carbonic anhydrase I
Description for Carbonic anhydrase 2: Inhibitory activity against human recombinant carbonic anhydrase II
Description for Carbonic anhydrase 4: Inhibitory activity against bovine carbonic anhydrase IV from lung microsomes

In the case of `NS(=O)(=O)c1ccc(N/C(S)=N\c2ccccc2C(=O)O)cc1`, the Ki on Carbonic anhydrase 1 is 55 nM; on Carbonic anhydrase 2, 13 nM; on Carbonic anhydrase 4 it was 29 nM. The “Delta IOP” value came out at 0.9 mmHg with Oryctolagus cuniculus [1], 8 mmHg in the series listed under Oryctolagus cuniculus [2] and 4.3 mmHg in the series listed under Oryctolagus cuniculus [3].
For the compound `NS(=O)(=O)c1ccc(N/C(S)=N/CCC(=O)NC(Cc2c[nH]cn2)C(=O)O)cc1` (configuration not stated), the Ki was 23 nM on Carbonic anhydrase 1, 3 nM on Carbonic anhydrase 2 and 10 nM on Carbonic anhydrase 4. The figures for the kin in the series listed under Oryctolagus cuniculus [4] and in the series filed under Oryctolagus cuniculus [7] were 5000 h⁻¹ and 2200 h⁻¹, respectively. The figures for the “Delta IOP” value in the series listed under Oryctolagus cuniculus [2], in the series filed under Oryctolagus cuniculus [3] and in the series listed under Oryctolagus cuniculus [5] were 1.2 mmHg, 1 mmHg and 4 mmHg, respectively. This compound registered a solubility in the series “physchem [6]” of 52 mM (≈ 22.9 mg/mL). In series [8], this compound gave a logD of 0.725.
As for `NS(=O)(=O)c1ccc(N/C(S)=N/C(C(=O)O)C(O)c2ccccc2)cc1` (configuration not stated), the Ki is 24 nM on Carbonic anhydrase 1, 2 nM at Carbonic anhydrase 2 and 9 nM on Carbonic anhydrase 4. Moreover, the kin in the series filed under Oryctolagus cuniculus [4] was found to be 12300 h⁻¹; in the series listed under Oryctolagus cuniculus [7], 4900 h⁻¹. Moreover, the entries for the “Delta IOP” value in the series listed under Oryctolagus cuniculus [2], in the series filed under Oryctolagus cuniculus [3] and in the series filed under Oryctolagus cuniculus [5] were 10 mmHg, 9 mmHg and 9.6 mmHg, respectively. Moreover, in “physchem [6]”, the solubility amounted to 48 mM (≈ 19 mg/mL). Also, the logD in series [8] came out at 2.314.
As for `NS(=O)(=O)c1ccc(N/C(S)=N\CCc2c[nH]cn2)cc1`, the Ki on Carbonic anhydrase 1 came to 92 nM; at Carbonic anhydrase 2, 33 nM; at Carbonic anhydrase 4 it was 56 nM. Besides, the entries for the “Delta IOP” value in the series listed under Oryctolagus cuniculus [9], with Oryctolagus cuniculus [10] and in the series with Oryctolagus cuniculus [11] were 0 mmHg, 3 mmHg and 0.3 mmHg, respectively.
With `NS(=O)(=O)c1ccc(N/C(S)=N\Cc2ccccn2)cc1`, the figures for the Ki on Carbonic anhydrase 1, at Carbonic anhydrase 2 and on Carbonic anhydrase 4 were 135 nM, 45 nM and 76 nM, respectively. The “Delta IOP” value in the series filed under Oryctolagus cuniculus [9] stood at 0.6 mmHg.
Consider `NS(=O)(=O)c1ccc(N/C(S)=N/C(Cc2c[nH]cn2)C(=O)O)cc1` (configuration not stated), for which the Ki at Carbonic anhydrase 1 was 32 nM; at Carbonic anhydrase 2, 5 nM; on Carbonic anhydrase 4, 15 nM. Further, the “Delta IOP” value came to 4.6 mmHg in the series with Oryctolagus cuniculus [12], 4 mmHg in the series filed under Oryctolagus cuniculus [3] and 4 mmHg in the series filed under Oryctolagus cuniculus [5].
Regarding `NC(=O)CC(/N=C(\S)Nc1ccc(S(N)(=O)=O)cc1)C(=O)O` (configuration not stated), the values for the Ki at Carbonic anhydrase 1, on Carbonic anhydrase 2 and at Carbonic anhydrase 4 were 27 nM, 6 nM and 11 nM, respectively. The Concentration turned out to be 12 µM in the series filed under Oryctolagus cuniculus [13]; 47 µM in the series filed under Oryctolagus cuniculus [15]; 43 µM in the series listed under Oryctolagus cuniculus [16]; 54 µM in the series listed under Oryctolagus cuniculus [18]; 285 µM in the series filed under Oryctolagus cuniculus [20]; 141 µM in the series listed under Oryctolagus cuniculus [21]. For the same compound, the “Delta IOP” value amounted to 15.5 mmHg with Oryctolagus cuniculus [14]; 10.1 mmHg in the series listed under Oryctolagus cuniculus [2]; 10 mmHg in the series on Oryctolagus cuniculus [19]; 7 mmHg in the series listed under Oryctolagus cuniculus [3]; 6 mmHg in the series listed under Oryctolagus cuniculus [5]; 13 mmHg with Oryctolagus cuniculus [22]. Also, the kin was 7800 h⁻¹ in the series listed under Oryctolagus cuniculus [4] and 3100 h⁻¹ in the series listed under Oryctolagus cuniculus [7]. In the series “physchem [17]”, this compound gave a solubility of 51 mM (≈ 17.7 mg/mL). Further, the logD in [8] came out at 1.759.
Regarding `NS(=O)(=O)c1ccc(N/C(S)=N\CCCC(=O)O)cc1`, the Ki turned out to be 45 nM on Carbonic anhydrase 1, 11 nM at Carbonic anhydrase 2 and 33 nM at Carbonic anhydrase 4. The “Delta IOP” value in the series on Oryctolagus cuniculus [23] is 5 mmHg; in the series filed under Oryctolagus cuniculus [2], 3.1 mmHg; in the series listed under Oryctolagus cuniculus [5], 2.9 mmHg.
Take `NS(=O)(=O)c1ccc(N/C(S)=N/C(CS)C(=O)O)cc1` (configuration not stated): the Ki was determined as 25 nM on Carbonic anhydrase 1, 5 nM on Carbonic anhydrase 2 and 10 nM at Carbonic anhydrase 4. Also, the kin in the series filed under Oryctolagus cuniculus [4] amounted to 700 h⁻¹; in the series listed under Oryctolagus cuniculus [7], 300 h⁻¹. Moreover, the “Delta IOP” value in the series filed under Oryctolagus cuniculus [2], in the series listed under Oryctolagus cuniculus [3] and in the series listed under Oryctolagus cuniculus [5] was 0 mmHg in each case. Also, the solubility in the series “physchem [17]” was found to be 65 mM (≈ 21.8 mg/mL). The compound also had a logD in [8] of 0.09.
In the case of `NS(=O)(=O)c1ccc(N/C(S)=N/C(CO)C(=O)O)cc1` (configuration not stated), the Ki at Carbonic anhydrase 1 was determined as 28 nM; on Carbonic anhydrase 2, 3 nM; on Carbonic anhydrase 4, 15 nM. For the same compound, the “Delta IOP” value with Oryctolagus cuniculus [24] amounted to 15 mmHg; in the series on Oryctolagus cuniculus [25], 10.4 mmHg; in the series with Oryctolagus cuniculus [12], 9.5 mmHg; with Oryctolagus cuniculus [26] it was 17.5 mmHg; in the series filed under Oryctolagus cuniculus [3], 8 mmHg; in the series listed under Oryctolagus cuniculus [5] it was 9.1 mmHg. Also, the figures for the kin in the series filed under Oryctolagus cuniculus [4] and in the series filed under Oryctolagus cuniculus [7] were 8000 h⁻¹ and 3400 h⁻¹, respectively. Also, the concentration in solution in “physchem [17]” (solubility) was 73 mM (≈ 23.3 mg/mL). For the same compound, the logD in series [8] stood at 1.459.
With `NCCCCC(/N=C(\S)Nc1ccc(S(N)(=O)=O)cc1)C(=O)O` (configuration not stated), the “Delta IOP” value with Oryctolagus cuniculus [27], in the series on Oryctolagus cuniculus [12] and in the series listed under Oryctolagus cuniculus [3] was 0 mmHg throughout. In addition, the Ki on Carbonic anhydrase 1 was found to be 97 nM; on Carbonic anhydrase 2, 12 nM; on Carbonic anhydrase 4, 55 nM.
Consider `NS(=O)(=O)c1nnc(NS(=O)(=O)c2ccccc2)s1` [BENZOLAMIDE], for which the kin in the series filed under Oryctolagus cuniculus [4] is 40 h⁻¹; in the series filed under Oryctolagus cuniculus [7] it was 10 h⁻¹. Moreover, in the series “physchem [6]”, the solubility was determined as 1.2 mM (≈ 0.384 mg/mL). The same compound returned a logD in series [8] of 0.00001.
`CCOc1ccc2nc(S(N)(=O)=O)sc2c1` [ETHOXZOLAMIDE] gave a solubility in “physchem [6]” of 0.04 mM (≈ 0.0103 mg/mL).
With `CC(C)CC(/N=C(\S)Nc1ccc(S(N)(=O)=O)cc1)C(=O)O` (configuration not stated), the figures for the Ki at Carbonic anhydrase 1, at Carbonic anhydrase 2 and at Carbonic anhydrase 4 were 21 nM, 5 nM and 12 nM, respectively. Besides, the “Delta IOP” value amounted to 6.3 mmHg with Oryctolagus cuniculus [12], 5.2 mmHg in the series listed under Oryctolagus cuniculus [3] and 6 mmHg in the series filed under Oryctolagus cuniculus [5].
